Experimental data taken from patent publication US20060178424A1, “Preventing atrial fibrillation (af) with the use of stain drugs” (priority 2003, published 2006).
“Also recorded” adds a separate entry of the source.

Experiments:
[1] = tested on: atrial tachycardia-induced remodeling; conditions: dog, cited from earlier work; for Prevention of effects of 1-week atrial tachycardia: literature refs 7-9
[2] = General properties (body weight, hemodynamic variables) at open-chest study; type: in vivo, dog; conditions: mean±SEM; for Body weight: ATP with oral treatment
Description: (§1) Unipolar leads were inserted through jugular veins into the right ventricular (RV) apex and right atrial (RA) appendage under fluoroscopic guidance and connected to pacemakers (Medtronic) in subcutaneous pockets in the neck. A bipolar electrode was also inserted into the RA for atrial stimulation and recording during serial electrophysiological study (EPS). AV block was created by radiofrequency catheter ablation to control ventricular response during atrial tachypacing (ATP) and the RV pacemaker was programmed to pace at 80 bpm.
(§2) Body temperature was maintained at 37° C., and a femoral artery and both femoral veins were cannulated for pressure monitoring and drug administration. A median sternotomy was performed, and bipolar electrodes were hooked to the RA and left atrial (LA) appendage for recording and stimulation. A programmable stimulator (Digital Cardiovascular Instruments) was used to deliver twice-threshold currents. […] AF duration was assessed as described above and AF vulnerability was determined as the percentage of atrial sites at which AF could be induced by single extrastimuli.

[3] = tested on: atrial tachypaced dogs (atrial tachycardia-induced remodeling); test: Serial closed-chest electrophysiological study during 7-day atrial tachypacing (400 bpm); type: in vivo, dog; conditions: 7-day ATP, in words
Description: as §1
(§3) After 24 hours for recovery, a baseline closed-chest EPS was performed under anesthesia with ketamine, diazepam, and isoflurane, and then ATP (400 bpm) was initiated. Closed-chest EPS was repeated at 2,4 and 7 days of ATP and a final open-chest EPS was performed on day 8 under anesthesia with morphine and α-chloralose.

[4] = tested on: atrial tachypaced dogs (atrial tachycardia-induced remodeling); test: Final open-chest electrophysiological study after atrial tachypacing; type: in vivo, dog
Description: as §1, §3, §2

## CCCCc1oc2ccccc2c1C(=O)c1cc(I)c(OCCN(CC)CC)c(I)c1 [amiodarone]
[1]
  Prevention of effects of 1-week atrial tachycardia: prevent the effects of 1-week atrial tachycardia in the dog

## COCC(=O)O[C@]1(CCN(C)CCCc2nc3ccccc3[nH]2)CCc2cc(F)ccc2[C@@H]1C(C)C [mibefradil]
[1]
  Prevention of effects of 1-week atrial tachycardia: prevent the effects of 1-week atrial tachycardia in the dog

## CCC(C)(C)C(=O)O[C@H]1C[C@@H](C)C=C2C=C[C@H](C)[C@H](CC[C@@H]3C[C@@H](O)CC(=O)O3)[C@H]21 [simvastatin]
[2]
  Diastolic BP: 60 ± 7 mm Hg
  HR (heart rate): 169 ± 6 bpm
  LAP (left atrial pressure): 8 ± 1 mm Hg
  LVEDP (left ventricular end-diastolic pressure): 9 ± 1 mm Hg
  LVSP (left ventricular systolic pressure): 127 ± 5 mm Hg
  Systolic BP: 131 ± 4 mm Hg
  Body weight: 29 ± 2 kg

## O=C1O[C@H]([C@@H](O)CO)C(O)=C1O [vitamin C]
[3]
  Atrial tachycardia-induced AF promotion (AF duration progression) versus ATP-only: not significantly different from ATP-only dogs
[2]
  Diastolic BP: 41 ± 6 mm Hg
  HR (heart rate): 145 ± 9 bpm
  LAP (left atrial pressure): 5 ± 1 mm Hg
  LVEDP (left ventricular end-diastolic pressure): 6 ± 1 mm Hg
  LVSP (left ventricular systolic pressure): 107 ± 8 mm Hg
  Systolic BP: 107 ± 8 mm Hg
  Body weight: 32 ± 2 kg
[4]; RA appendage, final open-chest study, in words
  ERP values as a function of cycle length versus ATP-only dogs: No significant differences
[4]; following ATP, ATP-only 57%
  AF requiring cardioversion for termination, share of dogs: 33%
[4]; one week of atrial tachypacing, in words
  Effect on tachypacing-induced ERP shortening and AF promotion (remodeling): unaffected; also recorded: not altered; also recorded: not shared; also recorded: not observed
[1]; Carnes et al
  Attenuation of ERP changes caused by 48-hour atrial tachycardia: effectiveness
